Reference: patent US20100324073A1, “Pyrazolo [1,5-A] Pyrimidine Compounds” (Wyeth LLC, priority 2007, published 2010)

What was measured:
ABCA1 gene = test: Quantitative analysis of ABCA1 gene regulation in THP-1 cells; assay type: cell-based; conditions: Gene regulation by LXR (human), differentiated THP-1 cells; for EC50: 18 hrs, ABCA1 mRNA by real-time PCR; for Agonism ABCA1: LXR agonist reference at 1.0 uM as positive control
Description: III. Quantitative Analysis of ABCA1 Gene Regulation in THP-1 Cells.
The compounds of formula (I) effect on the regulation of the ABCA1 gene was evaluated using the following procedure.
Cell culture: The THP-1 monocytic cell line (ATCC # TIB-202) was obtained from American Type Culture Collection (Manassas, Va.) and cultured in RPMI 1640 medium (Gibco, Carlsbad, Calif.) containing 10% FBS, 2 mM L-glutamine, and 55 uM beta-Mercaptoethanol (BME). Cells were plated in 96-well format at a density of 7.5×10^4 in complete medium containing 50-100 ng/ml phorbal 12,13-dibutyrate (Sigma, St. Louis, Mo.) for three days to induce differentiation into adherent macrophages. Differentiated THP-1 cells were treated with test compounds or ligands dissolved in DMSO (Sigma, D-8779) in culture medium lacking phorbal ester. […] Dose response effects were measured in duplicate, in the range of 0.001 to 30 micromolar concentrations and treated cells were incubated for an additional 18 hrs prior to RNA isolation. Unstimulated cells treated with vehicle were included as negative controls on each plate. An LXR agonist reference, N-(2,2,2-trifluoro-ethyl)-N-[4-(2,2,2-trifluoro-1-hydroxy-1-trifluoromethyl-ethyl)-phenyl]-benzenesulfonamide (Schultz, Joshua R., Genes & Development (2000), 14(22), 2831-2838), was dosed at 1.0 uM and served as a positive control. In antagonist mode, the compound under study is analyzed in the presence of 150 nM GW3965, trifluoromethyl-benzyl)-(2,2-diphenyl-ethyl)-amino]-propoxy]-phenyl)-acetic acid (Collins, J. L., J. Med. Chem. (2000), 45:1963-1966.). Results of antagonist analysis are expressed as % antagonism and IC50 (in μM). RNA isolation and quantitation: Total cellular RNA was isolated from treated cells cultured in 96-well plates using PrepStation 6100 (Applied Biosystems, Foster City, Calif.), according to the manufacturer's recommendations. RNA was resuspended in ribonuclease-free water and stored at −70° C. prior to analysis. RNA concentrations were quantitated with RiboGreen test procedure, #R-11490 (Molecular Probes, Eugene, Oreg.). Gene expression analysis: Gene-specific mRNA quantitation was performed by real-time PCR with the Perkin Elmer Corp. chemistry on an ABI Prism 7700 Sequence detection system (Applied Biosystems, Foster City, Calif.) according to the manufacturer's instructions. Samples (50-100 ng) of total RNA were assayed in duplicate or triplicate in 50 ul reactions using one-step RT-PCR and the standard curve method to estimate specific mRNA concentrations. Sequences of gene-specific primer and probe sets were designed with Primer Express Software (Applied Biosystems, Foster City, Calif.). The human ABCA1 primer and probe sequences are: forward, […], reverse, […], and probe, 6FAM-[…]-TAMRA. RT and PCR reactions were performed according to PE Applied Biosystem's protocol for Taqman Gold RT-PCR or Qiagen's protocl for Quantitect probe RT-PCR. Relative levels of ABCA1 mRNA are normalized using GAPDH mRNA or 18S rRNA probe/primer sets purchased commercially (Applied Biosystems, Foster City, Calif.).
Mean, standard deviation and statistical significance of duplicate evaluations of RNA samples were assessed using ANOVA, one-way analysis of variance using SAS analysis.

human LXRβ = biological target: T1, human LXRβ (Homo sapiens, UniProt P55055); test: Ligand-binding test procedure for human LXRβ; conditions: competition with 3H T0901317, biotinylated hLXRβ; read-out: hLXRb binding IC50
T1 construct: made in house; host or cells: E. coli
T1 sequence (P55055 1-460): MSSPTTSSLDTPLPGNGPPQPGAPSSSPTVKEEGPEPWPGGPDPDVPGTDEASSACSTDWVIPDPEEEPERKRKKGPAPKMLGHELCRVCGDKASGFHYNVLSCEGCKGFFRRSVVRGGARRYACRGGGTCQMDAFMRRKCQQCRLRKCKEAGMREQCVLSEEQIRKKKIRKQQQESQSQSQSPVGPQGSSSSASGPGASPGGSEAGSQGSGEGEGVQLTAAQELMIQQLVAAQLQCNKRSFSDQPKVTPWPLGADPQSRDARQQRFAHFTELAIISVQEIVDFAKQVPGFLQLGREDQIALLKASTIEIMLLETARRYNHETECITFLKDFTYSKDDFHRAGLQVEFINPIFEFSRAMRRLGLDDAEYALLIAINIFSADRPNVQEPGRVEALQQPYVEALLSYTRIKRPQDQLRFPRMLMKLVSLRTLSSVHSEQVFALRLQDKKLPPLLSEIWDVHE
Description: I. Ligand-Binding Test Procedure for Human LXRβ.
(§1) Buffer: 100 mM KCl, 100 mM TRIS (pH 7.4 at +4° C.), 8.6% glycerol, 0.1 mM PMSF*, 2 mM MTG*, 0.2% CHAPS (* not used in wash buffer)
Receptor source: E. coli extract from cells expressing biotinylated hLXRβ. Extract was made in a similar buffer as above, but with 50 mM TRIS.
(§2) Washed streptavidin and coated flash plates with wash buffer. Diluted receptor extract to give Bmax˜4000 cpm and add to the wells. Wrapped the plates in aluminum foil and stored them at +4° C. over night.
(§3) Made a dilution series in DMSO of the test ligands. Made a 5 nM solution of the radioactive tracer in buffer. Mixed 250 μl diluted tracer with 5 μl of the test ligand from each concentration of the dilution series. Washed the receptor-coated flash plates. Added 200 μl per well of the ligand/radiolabel mixture to the receptor-coated flash plates. Wrapped the plates in aluminum foil and incubate at +4° C. over night.
(§4) Aspirated wells, and wash the flashed plates. Sealed the plate. Measured the remaining radioactivity in the plate.

human LXRα = biological target: T2, human LXRα (Homo sapiens, UniProt Q13133); test: Ligand-binding test procedure for human LXRα; conditions: competition with 3H T0901317, biotinylated hLXRα; read-out: hLXRa binding IC50
T2 construct: made in house; host or cells: E. coli
T2 sequence (Q13133 1-447): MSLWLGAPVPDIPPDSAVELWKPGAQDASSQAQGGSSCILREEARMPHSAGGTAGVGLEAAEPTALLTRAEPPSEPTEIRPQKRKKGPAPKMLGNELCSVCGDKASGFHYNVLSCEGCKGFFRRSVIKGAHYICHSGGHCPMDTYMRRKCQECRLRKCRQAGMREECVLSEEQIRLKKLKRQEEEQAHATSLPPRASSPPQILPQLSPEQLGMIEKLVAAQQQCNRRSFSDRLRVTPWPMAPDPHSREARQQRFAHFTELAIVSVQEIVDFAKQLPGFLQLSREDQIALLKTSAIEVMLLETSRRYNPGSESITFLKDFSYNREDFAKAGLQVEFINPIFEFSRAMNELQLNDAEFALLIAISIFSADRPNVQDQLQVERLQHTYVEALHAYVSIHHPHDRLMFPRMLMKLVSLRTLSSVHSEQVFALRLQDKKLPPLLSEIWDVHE
Description: II. Ligand-Binding Test Procedure for Human LXRα.
as §1
Receptor source: E. coli extract from cells expressing biotinylated hLXRα. Extract was made in a similar buffer as above, but with 50 mM TRIS.
as §2
as §3, with “[…]” for “250 μl”
as §4

EC50 (ABCA1 gene) [nM]	IC50 (human LXRβ) [nM]	IC50 (human LXRα) [nM]	SMILES	Agonism ABCA1 (ABCA1 gene) [%]
275	5.3	98.2	CCS(=O)(=O)c1cccc(Oc2cccc(-c3c(Cc4ccccc4)nn4c(C(F)(F)F)ccnc34)c2)c1 [Example 6, 2-benzyl-3-(3-(3-(ethylsulfonyl)phenoxy)phenyl)-7-(trifluoromethyl)pyrazolo[1,5-a]pyrimidine]	101
115	2.4	61.6	CS(=O)(=O)c1cccc(Oc2cccc(-c3c(Cc4ccccc4)nn4c(C(F)(F)F)ccnc34)c2)c1 [Example 5, 2-benzyl-3-{3-[3-(methylsulfonyl)phenoxy]phenyl}-7-(trifluoromethyl)pyrazolo[1,5-a]pyrimidine]	98
724	3.4	87.2	O=S(=O)(CCCO)c1cccc(Oc2cccc(-c3c(Cc4ccccc4)nn4c(C(F)(F)F)ccnc34)c2)c1 [Example 7, 3-(3-(3-(2-benzyl-7-(trifluoromethyl)pyrazolo[1,5-a]pyrimidin-3-yl)phenoxy)phenylsulfonyl)propan-1-ol]	109
